Experimental data from the NIST ThermoML archive (doi:10.1016/j.jct.2009.07.002).
± gives the expanded uncertainty stated by the source.

Assay: isobaric coefficient of expansion
Conditions: Liquid, DSC with Pressure Shift

CCCCCCCCCCO [decan-1-ol]
isobaric coefficient of expansion
Conditions | 298.15 K | 308.15 K | 318.15 K | 328.15 K | 338.15 K | 348.15 K
5000 kPa | 0.000809 ± 3.4e-05 1/K | 0.000822 ± 3.5e-05 1/K | 0.000837 ± 3.6e-05 1/K | 0.00085 ± 3.6e-05 1/K | 0.000869 ± 3.7e-05 1/K | 0.000895 ± 3.8e-05 1/K
10000 kPa | 0.000792 ± 3.4e-05 1/K | 0.0008 ± 3.4e-05 1/K | 0.000814 ± 3.5e-05 1/K | 0.000827 ± 3.5e-05 1/K | 0.000843 ± 3.6e-05 1/K | 0.000863 ± 3.7e-05 1/K
15000 kPa | 0.000776 ± 3.3e-05 1/K | 0.000784 ± 3.3e-05 1/K | 0.000795 ± 3.4e-05 1/K | 0.000803 ± 3.4e-05 1/K | 0.000819 ± 3.5e-05 1/K | 0.000832 ± 3.5e-05 1/K
20000 kPa | 0.000755 ± 3.2e-05 1/K | 0.000764 ± 3.2e-05 1/K | 0.000775 ± 3.3e-05 1/K | 0.000781 ± 3.3e-05 1/K | 0.000799 ± 3.4e-05 1/K | 0.000812 ± 3.4e-05 1/K
25000 kPa | 0.000739 ± 3.1e-05 1/K | 0.000748 ± 3.2e-05 1/K | 0.000758 ± 3.2e-05 1/K | 0.000765 ± 3.2e-05 1/K | 0.000779 ± 3.3e-05 1/K | 0.000792 ± 3.4e-05 1/K
30000 kPa | 0.000725 ± 3.1e-05 1/K | 0.00073 ± 3.1e-05 1/K | 0.000743 ± 3.2e-05 1/K | 0.000748 ± 3.2e-05 1/K | 0.00076 ± 3.2e-05 1/K | 0.000775 ± 3.3e-05 1/K
35000 kPa | 0.000715 ± 3e-05 1/K | 0.000719 ± 3e-05 1/K | 0.000726 ± 3.1e-05 1/K | 0.000732 ± 3.1e-05 1/K | 0.000745 ± 3.2e-05 1/K | 0.000755 ± 3.2e-05 1/K
40000 kPa | 0.000702 ± 3e-05 1/K | 0.000706 ± 3e-05 1/K | 0.000711 ± 3e-05 1/K | 0.000719 ± 3e-05 1/K | 0.000729 ± 3.1e-05 1/K | 0.000738 ± 3.1e-05 1/K
45000 kPa | 0.00069 ± 2.9e-05 1/K | 0.00069 ± 2.9e-05 1/K | 0.000699 ± 3e-05 1/K | 0.000704 ± 3e-05 1/K | 0.000713 ± 3e-05 1/K | 0.000722 ± 3.1e-05 1/K
50000 kPa | 0.000679 ± 2.9e-05 1/K | 0.00068 ± 2.9e-05 1/K | 0.000688 ± 2.9e-05 1/K | 0.000691 ± 2.9e-05 1/K | 0.000701 ± 3e-05 1/K | 0.000708 ± 3e-05 1/K
55000 kPa | 0.000669 ± 2.8e-05 1/K | 0.000669 ± 2.8e-05 1/K | 0.000676 ± 2.9e-05 1/K | 0.000679 ± 2.9e-05 1/K | 0.000689 ± 2.9e-05 1/K | 0.000697 ± 3e-05 1/K

CCO [ethanol]
isobaric coefficient of expansion
Conditions | 278.15 K | 288.15 K | 298.15 K | 308.15 K | 318.15 K | 328.15 K | 338.15 K | 348.15 K
5000 kPa | 0.00102 ± 4.3e-05 1/K | 0.00103 ± 4.4e-05 1/K | 0.00106 ± 4.5e-05 1/K | 0.00109 ± 4.6e-05 1/K | 0.00112 ± 4.8e-05 1/K | 0.00116 ± 4.9e-05 1/K | 0.00121 ± 5.1e-05 1/K | 0.00127 ± 5.4e-05 1/K
10000 kPa | 0.000988 ± 4.2e-05 1/K | 0.00101 ± 4.3e-05 1/K | 0.00103 ± 4.4e-05 1/K | 0.00105 ± 4.5e-05 1/K | 0.00109 ± 4.6e-05 1/K | 0.00112 ± 4.7e-05 1/K | 0.00116 ± 4.9e-05 1/K | 0.00122 ± 5.2e-05 1/K
15000 kPa | 0.000966 ± 4.1e-05 1/K | 0.000983 ± 4.2e-05 1/K | 0.001 ± 4.3e-05 1/K | 0.00102 ± 4.3e-05 1/K | 0.00105 ± 4.5e-05 1/K | 0.00108 ± 4.6e-05 1/K | 0.00112 ± 4.7e-05 1/K | 0.00116 ± 4.9e-05 1/K
20000 kPa | 0.000948 ± 4e-05 1/K | 0.000956 ± 4.1e-05 1/K | 0.000973 ± 4.1e-05 1/K | 0.000994 ± 4.2e-05 1/K | 0.00102 ± 4.3e-05 1/K | 0.00105 ± 4.4e-05 1/K | 0.00108 ± 4.6e-05 1/K | 0.00112 ± 4.8e-05 1/K
25000 kPa | 0.000928 ± 3.9e-05 1/K | 0.000936 ± 4e-05 1/K | 0.000952 ± 4e-05 1/K | 0.000971 ± 4.1e-05 1/K | 0.000988 ± 4.2e-05 1/K | 0.00102 ± 4.3e-05 1/K | 0.00105 ± 4.4e-05 1/K | 0.00108 ± 4.6e-05 1/K
30000 kPa | 0.000908 ± 3.9e-05 1/K | 0.000918 ± 3.9e-05 1/K | 0.000929 ± 3.9e-05 1/K | 0.000944 ± 4e-05 1/K | 0.000966 ± 4.1e-05 1/K | 0.000988 ± 4.2e-05 1/K | 0.00102 ± 4.3e-05 1/K | 0.00105 ± 4.5e-05 1/K
35000 kPa | 0.000892 ± 3.8e-05 1/K | 0.000899 ± 3.8e-05 1/K | 0.000908 ± 3.9e-05 1/K | 0.000921 ± 3.9e-05 1/K | 0.000942 ± 4e-05 1/K | 0.000962 ± 4.1e-05 1/K | 0.000988 ± 4.2e-05 1/K | 0.00102 ± 4.3e-05 1/K
40000 kPa | 0.000882 ± 3.7e-05 1/K | 0.000875 ± 3.7e-05 1/K | 0.000887 ± 3.8e-05 1/K | 0.000903 ± 3.8e-05 1/K | 0.000918 ± 3.9e-05 1/K | 0.000936 ± 4e-05 1/K | 0.000958 ± 4.1e-05 1/K | 0.000984 ± 4.2e-05 1/K
45000 kPa | 0.000863 ± 3.7e-05 1/K | 0.000866 ± 3.7e-05 1/K | 0.000871 ± 3.7e-05 1/K | 0.000883 ± 3.7e-05 1/K | 0.000898 ± 3.8e-05 1/K | 0.000912 ± 3.9e-05 1/K | 0.000935 ± 4e-05 1/K | 0.000959 ± 4.1e-05 1/K
50000 kPa | 0.000852 ± 3.6e-05 1/K | 0.00085 ± 3.6e-05 1/K | 0.000853 ± 3.6e-05 1/K | 0.000865 ± 3.7e-05 1/K | 0.000882 ± 3.7e-05 1/K | 0.000894 ± 3.8e-05 1/K | 0.000911 ± 3.9e-05 1/K | 0.000938 ± 4e-05 1/K
55000 kPa | 0.000839 ± 3.6e-05 1/K | 0.000831 ± 3.5e-05 1/K | 0.000839 ± 3.6e-05 1/K | 0.000848 ± 3.6e-05 1/K | 0.000863 ± 3.7e-05 1/K | 0.000877 ± 3.7e-05 1/K | 0.000891 ± 3.8e-05 1/K | 0.000915 ± 3.9e-05 1/K

CCCCCCCO [heptan-1-ol]
isobaric coefficient of expansion
Conditions | 278.15 K | 288.15 K | 298.15 K | 308.15 K | 318.15 K | 328.15 K | 338.15 K | 348.15 K
5000 kPa | 0.000799 ± 3.4e-05 1/K | 0.000815 ± 3.5e-05 1/K | 0.000831 ± 3.5e-05 1/K | 0.000854 ± 3.6e-05 1/K | 0.000878 ± 3.7e-05 1/K | 0.000903 ± 3.8e-05 1/K | 0.000928 ± 3.9e-05 1/K | 0.000956 ± 4.1e-05 1/K
10000 kPa | 0.000779 ± 3.3e-05 1/K | 0.000798 ± 3.4e-05 1/K | 0.000811 ± 3.4e-05 1/K | 0.000832 ± 3.5e-05 1/K | 0.000854 ± 3.6e-05 1/K | 0.000876 ± 3.7e-05 1/K | 0.000901 ± 3.8e-05 1/K | 0.000927 ± 3.9e-05 1/K
15000 kPa | 0.000767 ± 3.3e-05 1/K | 0.000784 ± 3.3e-05 1/K | 0.000795 ± 3.4e-05 1/K | 0.000813 ± 3.5e-05 1/K | 0.000833 ± 3.5e-05 1/K | 0.000849 ± 3.6e-05 1/K | 0.000875 ± 3.7e-05 1/K | 0.000899 ± 3.8e-05 1/K
20000 kPa | 0.000754 ± 3.2e-05 1/K | 0.000769 ± 3.3e-05 1/K | 0.000779 ± 3.3e-05 1/K | 0.000796 ± 3.4e-05 1/K | 0.000814 ± 3.5e-05 1/K | 0.000831 ± 3.5e-05 1/K | 0.000851 ± 3.6e-05 1/K | 0.000872 ± 3.7e-05 1/K
25000 kPa | 0.000741 ± 3.1e-05 1/K | 0.000757 ± 3.2e-05 1/K | 0.000762 ± 3.2e-05 1/K | 0.000776 ± 3.3e-05 1/K | 0.000792 ± 3.4e-05 1/K | 0.000811 ± 3.4e-05 1/K | 0.00083 ± 3.5e-05 1/K | 0.000848 ± 3.6e-05 1/K
30000 kPa | 0.000726 ± 3.1e-05 1/K | 0.000743 ± 3.2e-05 1/K | 0.000747 ± 3.2e-05 1/K | 0.000761 ± 3.2e-05 1/K | 0.000775 ± 3.3e-05 1/K | 0.000792 ± 3.4e-05 1/K | 0.000809 ± 3.4e-05 1/K | 0.000826 ± 3.5e-05 1/K
35000 kPa | 0.000713 ± 3e-05 1/K | 0.00073 ± 3.1e-05 1/K | 0.000734 ± 3.1e-05 1/K | 0.000747 ± 3.2e-05 1/K | 0.00076 ± 3.2e-05 1/K | 0.000775 ± 3.3e-05 1/K | 0.000791 ± 3.4e-05 1/K | 0.000806 ± 3.4e-05 1/K
40000 kPa | 0.000697 ± 3e-05 1/K | 0.000716 ± 3e-05 1/K | 0.000716 ± 3e-05 1/K | 0.00073 ± 3.1e-05 1/K | 0.000742 ± 3.1e-05 1/K | 0.000756 ± 3.2e-05 1/K | 0.000769 ± 3.3e-05 1/K | 0.000786 ± 3.3e-05 1/K
45000 kPa | 0.00069 ± 2.9e-05 1/K | 0.000708 ± 3e-05 1/K | 0.000709 ± 3e-05 1/K | 0.000717 ± 3e-05 1/K | 0.00073 ± 3.1e-05 1/K | 0.00074 ± 3.1e-05 1/K | 0.000754 ± 3.2e-05 1/K | 0.000768 ± 3.3e-05 1/K
50000 kPa | 0.000682 ± 2.9e-05 1/K | 0.000694 ± 2.9e-05 1/K | 0.000695 ± 2.9e-05 1/K | 0.000705 ± 3e-05 1/K | 0.000714 ± 3e-05 1/K | 0.000726 ± 3.1e-05 1/K | 0.000741 ± 3.1e-05 1/K | 0.000752 ± 3.2e-05 1/K
55000 kPa | 0.000673 ± 2.9e-05 1/K | 0.000686 ± 2.9e-05 1/K | 0.000684 ± 2.9e-05 1/K | 0.000693 ± 2.9e-05 1/K | 0.000703 ± 3e-05 1/K | 0.000715 ± 3e-05 1/K | 0.000725 ± 3.1e-05 1/K | 0.000737 ± 3.1e-05 1/K
